Reference: paper doi:10.1101/374926v1 (bioRxiv, 2018)

Assays:
[1] = test system: GR*-eGFP in Saos-2(GIGT) cells; assay: Glucocorticoid-induced eGFP translocation; assay type: cell-based, human; conditions: 1 μM, 30 min
[2] = test system: eGFP-hGal3 in Saos-2 cells; assay: Galectin recruitment assay for endosomal damage; assay type: cell-based, human
[3] = test system: eGFP-hGal8 in Saos-2 cells; assay: Galectin recruitment assay for endosomal damage; assay type: cell-based, human; conditions: RNAiMAX 16 μL/mL or LLOMe 1 mM, 1 h
Saos-2 cells = assay: FCS-based Lys9^R endosomal leakage assay; assay type: cell-based, human; conditions: for Lys9^R delivery efficiency (DE), cytosol / Lys9^R delivery efficiency (DE), nucleus: 60 min, FCS, n > 10 cells
[4] = In vitro FCS diffusion measurement; assay type: physicochemical; conditions: Milli-Q water
[5] = 2,500 cells per well in transfection medium

C[C@@H]1C[C@H]2[C@@H]3CCC4=CC(=O)C=C[C@]4(C)[C@@]3(F)[C@@H](O)C[C@]2(C)[C@@]1(O)C(=O)CO [Dex, dexamethasone]
translocation ratio (TR) [1, 5]: 3.4 ± 0.40

COC(=O)[C@H](CC(C)C)NC(=O)[C@@H](N)CC(C)C [LLOMe, L-leucyl-L-leucine methyl ester]
vesicular staining compared to the total cell area ([2]; LLOMe 1 mM, 1 hour, corresponds to ERC 400.0): 4% | ERC value routinely obtained ([2]; LLOMe 1 mM, 1 hour, untreated cells around 0.0): ~400.0 | increase of average ERC over untreated cells, eGFP-hGal3 ([2]; RNAiMAX 16 μL/mL or LLOMe 1 mM, 1 h): 147 fold | increase of average ERC over untreated cells, eGFP-hGal8 [3]: 68 fold | Lys9^R delivery efficiency (DE), cytosol (Saos-2 cells; LLOMe 0.125 mM, no agent: 3): 3% | Lys9^R delivery efficiency (DE), nucleus (Saos-2 cells; LLOMe 0.125 mM, no agent: 4): 6% | Lys9^R delivery efficiency (DE), cytosol (Saos-2 cells; LLOMe 0.25 mM): 4% | Lys9^R delivery efficiency (DE), nucleus (Saos-2 cells; LLOMe 0.25 mM): 12% | Lys9^R delivery efficiency (DE), cytosol (Saos-2 cells; LLOMe 0.5 mM): 8% | Lys9^R delivery efficiency (DE), nucleus (Saos-2 cells; LLOMe 0.5 mM): 12% | Lys9^R delivery efficiency (DE), cytosol (Saos-2 cells; LLOMe 1.0 mM): 9% | Lys9^R delivery efficiency (DE), nucleus (Saos-2 cells; LLOMe 1.0 mM): 12% | endosomal leakage of Lys9^R (Saos-2 cells; LLOMe titration up to 1 mM, 1 h): no detectable endosomal leakage

Ac-KKKKKKKKK-NH2 [Lys9^UL]
Average τdiff in vitro at 25 °C [4]: 0.064 ± 0.001 ms | Measured D at 25 °C [4]: 206 ± 3 μm^2 s^-1

K^Dex-WYSCNVCGKAFVLSRHLNRHLRVHRRAT-CONH2 [2^Dex]
translocation ratio (TR) [1, 5]: 3.0 ± 0.090 | translocation ratio (TR) ([1]; complete media): around 2.0 | translocation ratio (TR) ([1]; transfection media): around 3.0

K^Dex–GPSQPTYPGDDAPVRDLIRFYRDLRRYLNVVTR HRY-CONH2 [1^Dex]
translocation ratio (TR) [1, 5]: 3.0 ± 0.40 | mean translocation ratio (TR) ([1]; cells transfected with non-targeting siRNA, non-treated 1.2 ± 0.1): 2.4 ± 0.3 | translocation ratio (TR) ([1]; complete media): around 2.0 | translocation ratio (TR) ([1]; transfection media): around 3.0
